Source: article PMC9697025, “Discovery of N-Containing (-)-Borneol Esters as Respiratory Syncytial Virus Fusion Inhibitors” (Pharmaceuticals, 2022)

Assays:
[1] = MTT cytotoxicity assay with non-infected HEp2 cells; conditions: human
RSV A strain A2 = assay: In vitro antiviral assay against RSV A strain A2 in HEp-2 cells (ELISA, virus titer); assay type: cell-based, respiratory syncytial virus; conditions: for IC50: human respiratory syncytial virus, HEp-2, 50% decrease in virus replication, RSV A strain A2 in HEp-2 cells, mean ± SD; for SI: selectivity index, CC50/IC50 ratio, RSV A2 / HEp-2
rVSV-ΔG-MarV-GP = conditions: CC50/IC50MarV-GP, HEK293T cells ref 12,13; cited from earlier work
rVSV-ΔG-EboV-GP = conditions: CC50/IC50EboV-GP, HEK293T cells ref 12,13; cited from earlier work
[2] = test system: A/Puerto Rico/8/34 (H1N1) virus; design: method as in PMID 30108810; conditions: CC50/IC50H1N1, A/Puerto Rico/8/34 (H1N1) ref 15; cited from earlier work
RSV = assay: Temperature shift assay (virus attachment at 4 °C vs post-binding); conditions: unbound virus washed away, compound added before shift to 37 °C
RSV A strain = conditions: for effect on viral titer, time-of-addition: compound added at 1 h post infection; for inhibitory activity, time-of-addition: compound added at later time points (after 2 h post infection); for time of addition up to which antiviral activity was maintained: post infection
Vaccinia virus = conditions: CC50/IC50VACV ref 16; cited from earlier work

Row | SMILES | CC50 at 24 h [1] [µM] | IC50 (RSV A strain A2) [µM] | SI (RSV A strain A2) | other results
1 | CC1CCN(CCC(=O)O[C@@H]2C[C@@H]3CC[C@@]2(C)C3(C)C)CC1 [Compound 7b] | 159 ± 17.1 | 6.2 ± 2.1 | 26 | 
2 | CC1(C)[C@H]2CC[C@]1(C)[C@H](OC(=O)CCN1CCN(Cc3ccccc3)CC1)C2 [Compound 11b] | 49.4 ± 5.6 | 46.8 ± 7.2 | 1 | 
3 | CN(C)CC(=O)O[C@@H]1C[C@@H]2CC[C@@]1(C)C2(C)C [Compound 3a] | 497 ± 53.2 | 134 ± 19.5 | 4 | 
4 | CC1CCN(CCCC(=O)O[C@@H]2C[C@@H]3CC[C@@]2(C)C3(C)C)CC1 [Compound 7c] | 59.1 ± 4.8 | 19.9 ± 2.3 | 3 | 
5 | CC1(C)[C@H]2CC[C@]1(C)[C@H](OC(=O)CN1CCSCC1)C2 [Compound 12a, (1S,2R,4S)-1,7,7-Trimethylbicyclo [2.2.1]heptan-2-yl 2-thiomorpholinoacetate] | 126 ± 10.5 | 69.6 ± 16.2 | 2 | 
6 | CN1CCN(CCC(=O)O[C@@H]2C[C@@H]3CC[C@@]2(C)C3(C)C)CC1 [Compound 9b] | 169 ± 12.1 | 17.2 ± 1.9 | 10 | 
7 | CN1CCN(CC(=O)O[C@@H]2C[C@@H]3CC[C@@]2(C)C3(C)C)CC1 [Compound 9a] | 267 ± 16.5 | 13.9 ± 2.4 | 19 | 
8 | CC1(C)[C@H]2CC[C@]1(C)[C@H](OC(=O)CCN1CCN(c3ccccc3F)CC1)C2 [Compound 15b, (1S,2R,4S)-1,7,7-trimethylbicyclo [2.2.1]heptan-2-yl 3-(4-(2-fluorophenyl)piperazin-1-yl)propanoate] | 20.1 ± 12.1 | 8.2 ± 0.8 | 2 | 
9 | CCN1CCN(CCC(=O)OC2CC3CCC2(C)C3(C)C)CC1 (stereo not drawn) [II (n=2)] |  |  |  | SIMarV-GP (rVSV-ΔG-MarV-GP): ^a SIMarV-GP = 47; SIEboV-GP (rVSV-ΔG-EboV-GP): ^b SIEboV-GP = 170; SIH1N1 [2]: ^c SIH1N1 = 12
10 | CC1(C)[C@H]2CC[C@]1(C)[C@H](OC(=O)CN1CCN(c3ccccc3F)CC1)C2 [Compound 15a, (1S,2R,4S)-1,7,7-trimethylbicyclo [2.2.1]heptan-2-yl 2-(4-(2-fluorophenyl)piperazin-1-yl)acetate] | 27.5 ± 3.8 | 2.7 ± 0.7 | 10 | 
11 | CC1(C)[C@H]2CC[C@]1(C)[C@H](OC(=O)CN1CCCCC1)C2 [Compound 6a] | 129 ± 9.8 | 41.9 ± 3.1 | 3 | 
12 | CC1(C)[C@H]2CC[C@]1(C)[C@H](OC(=O)CCN1CCCCCC1)C2 [Compound 8b] | 345 ± 24.6 | 97.6 ± 8.9 | 3 | 
13 | CC1(C)[C@H]2CC[C@]1(C)[C@H](OC(=O)CCCN1CCCCCC1)C2 [Compound 8c] | 159 ± 12.4 | 34.2 ± 1.1 | 5 | 
14 | CC1(C)[C@H]2CC[C@]1(C)[C@H](OC(=O)CN1CCN(c3ccccc3)CC1)C2 [Compound 14a, (1S,2R,4S)-1,7,7-Trimethylbicyclo [2.2.1]heptan-2-yl 2-(4-phenylpiperazin-1-yl)acetate] | 26.4 ± 3.8 | 4.6 ± 1.1 | 6 | 
15 | CN(C)CCC(=O)O[C@@H]1C[C@@H]2CC[C@@]1(C)C2(C)C [Compound 3b] | 983 ± 44.2 | 8.9 ± 2.4 | 111 | anti-RSV activity, temperature shift conditions (B) (RSV): antiviral activity was maintained; effect on viral titer, time-of-addition (RSV A strain): significant reduction in viral titer; inhibitory activity, time-of-addition (RSV A strain): lost their inhibitory activity; time of addition up to which antiviral activity was maintained (RSV A strain): up to 2 h
16 | CC1(C)[C@H]2CC[C@]1(C)[C@H](OC(=O)CCCN1CCN(c3ccccc3)CC1)C2 [Compound 14c, (1S,2R,4S)-1,7,7-trimethylbicyclo [2.2.1]heptan-2-yl 4-(4-phenylpiperazin-1-yl)butanoate] | 23.9 ± 8.7 | 12 ± 2 | 2 | 
17 | CC1(C)[C@H]2CC[C@]1(C)[C@H](OC(=O)CCCN1CCSCC1)C2 [Compound 12c, (1S,2R,4S)-1,7,7-trimethylbicyclo [2.2.1]heptan-2-yl 4-thiomorpholinobutanoate] | 56.5 ± 3.8 | 75.3 ± 7.9 | 1 | 
18 | CC1CCN(CC(=O)O[C@@H]2C[C@@H]3CC[C@@]2(C)C3(C)C)CC1 [Compound 7a] | 399 ± 4.8 | 109 ± 10.7 | 4 | 
19 | CC1(C)[C@H]2CC[C@]1(C)[C@H](OC(=O)CN1CCCCCC1)C2 [Compound 8a] | 85.2 ± 5.6 | 61.3 ± 3.2 | 1 | 
20 | CCN1CCN(CCCC(=O)O[C@@H]2C[C@@H]3CC[C@@]2(C)C3(C)C)CC1 [Compound 10c] | 208 ± 21.4 | 9.8 ± 2.5 | 21 | 

Row | SMILES | CC50 at 24 h [1] [µM] | IC50 (RSV A strain A2) [µM] | SI (RSV A strain A2) | other results
21 | CC1(C)[C@H]2CC[C@]1(C)[C@H](OC(=O)CCCN1CCN(Cc3ccccc3)CC1)C2 [Compound 11c] | 82.8 ± 7.9 | 25.1 ± 3.5 | 3 | 
22 | CCN(CC)CC(=O)O[C@@H]1C[C@@H]2CC[C@@]1(C)C2(C)C [Compound 4a] | 669 ± 56.4 | 355 ± 51.1 | 2 | 
23 | CC1(C)[C@H]2CC[C@]1(C)[C@H](OC(=O)CCCN1CCC(Cc3ccccc3)CC1)C2 [Compound 13c, (1S,2R,4S)-1,7,7-trimethylbicyclo [2.2.1]heptan-2-yl 4-(4-benzylpiperidin-1-yl)butanoate] | 40.2 ± 5.1 | 7.3 ± 0.6 | 5 | 
24 | CCN1CCN(CCC(=O)O[C@@H]2C[C@@H]3CC[C@@]2(C)C3(C)C)CC1 [Compound 10b] | 117 ± 11.7 | 5.9 ± 1.4 | 20 | 
25 | CN1CCN(CCCC(=O)O[C@@H]2C[C@@H]3CC[C@@]2(C)C3(C)C)CC1 [Compound 9c] | 198 ± 13.6 | 5.1 ± 0.8 | 39 | 
26 | CC1(C)[C@H]2CC[C@]1(C)[C@H](OC(=O)CCCN1CCN(c3ccccc3F)CC1)C2 [Compound 15c, (1S,2R,4S)-1,7,7-trimethylbicyclo [2.2.1]heptan-2-yl 4-(4-(2-fluorophenyl)piperazin-1-yl)butanoate] | 27.8 ± 7.4 | 14.7 ± 2.1 | 2 | 
27 | CN(C)CCCC(=O)O[C@@H]1C[C@@H]2CC[C@@]1(C)C2(C)C [Compound 3c] | 228 ± 23.5 | 23.9 ± 3.7 | 10 | 
28 | CC1(C)[C@H]2CC[C@]1(C)[C@H](OC(=O)CN1CCN(Cc3ccccc3)CC1)C2 [Compound 11a] | 51.3 ± 4.9 | 21.6 ± 2.6 | 2 | 
29 | CCN(CC)CCC(=O)O[C@@H]1C[C@@H]2CC[C@@]1(C)C2(C)C [Compound 4b] | 391 ± 23.1 | 99.5 ± 8.7 | 4 | 
30 | CC1(C)[C@H]2CC[C@]1(C)[C@H](OC(=O)CCN1CCC(Cc3ccccc3)CC1)C2 [Compound 13b, (1S,2R,4S)-1,7,7-trimethylbicyclo [2.2.1]heptan-2-yl 3-(4-benzylpiperidin-1-yl)propanoate] | 25.5 ± 11.4 | 14.9 ± 1 | 2 | 
31 | CCN1CCN(CC(=O)O[C@@H]2C[C@@H]3CC[C@@]2(C)C3(C)C)CC1 [Compound 10a] | 217 ± 18.9 | 57.7 ± 2.2 | 4 | 
32 | CN1CCN(CC(=O)OC2CC3CCC2(C)C3(C)C)CC1 (stereo not drawn) [I (n=1)] |  |  |  | SIMarV-GP (rVSV-ΔG-MarV-GP): ^a SIMarV-GP = 14; SIEboV-GP (rVSV-ΔG-EboV-GP): ^b SIEboV-GP = 46; SIH1N1 [2]: ^c SIH1N1 = 23
33 | CC1(C)[C@H]2CC[C@]1(C)[C@H](OC(=O)CCN1CCCCC1)C2 [Compound 6b] | 326 ± 45.6 | 14.6 ± 1.2 | 22 | anti-RSV activity, temperature shift conditions (B) (RSV): antiviral activity was maintained; effect on viral titer, time-of-addition (RSV A strain): significant reduction in viral titer; inhibitory activity, time-of-addition (RSV A strain): lost their inhibitory activity; time of addition up to which antiviral activity was maintained (RSV A strain): up to 2 h
34 | CC1(C)[C@H]2CC[C@]1(C)[C@H](OC(=O)CN1CCC(Cc3ccccc3)CC1)C2 [Compound 13a, (1S,2R,4S)-1,7,7-trimethylbicyclo [2.2.1]heptan-2-yl 2-(4-benzylpiperidin-1-yl)acetate] | 116 ± 13.4 | 21.6 ± 1.8 | 5 | 
35 | CCN(CC)CCCC(=O)O[C@@H]1C[C@@H]2CC[C@@]1(C)C2(C)C [Compound 4c] | 152 ± 12.1 | 30.5 ± 2.9 | 5 | 
36 | CC1(C)[C@H]2CC[C@]1(C)[C@H](OC(=O)CCCN1CCCCC1)C2 [Compound 6c] | 117 ± 11.1 | 39 ± 4.1 | 3 | 
37 | CC1(C)[C@H]2CC[C@]1(C)[C@H](OC(=O)CCN1CCSCC1)C2 [Compound 12b, (1S,2R,4S)-1,7,7-trimethylbicyclo [2.2.1]heptan-2-yl 3-thiomorpholinopropanoate] | 86 ± 7.4 | 96.3 ± 3.5 | 1 | 
38 | CC1(C)[C@H]2CC[C@]1(C)[C@H](OC(=O)CCCN1CCOCC1)C2 [Compound 5c] | 307 ± 24.1 | 5.8 ± 0.9 | 53 | SIVACV (Vaccinia virus): ^d SIVACV = 23
39 | CN1CCN(CCC(=O)OC2CC3CCC2(C)C3(C)C)CC1 (stereo not drawn) [I (n=2)] |  |  |  | SIMarV-GP (rVSV-ΔG-MarV-GP): ^a SIMarV-GP = 20; SIEboV-GP (rVSV-ΔG-EboV-GP): ^b SIEboV-GP = 870; SIH1N1 [2]: ^c SIH1N1 = 25
40 | CCN1CCN(CC(=O)OC2CC3CCC2(C)C3(C)C)CC1 (stereo not drawn) [II (n=1)] |  |  |  | SIMarV-GP (rVSV-ΔG-MarV-GP): ^a SIMarV-GP = 29; SIEboV-GP (rVSV-ΔG-EboV-GP): ^b SIEboV-GP = 80; SIH1N1 [2]: ^c SIH1N1 = 16
